Assay results reported in patent US12692238B2, “Substituted pyridazinone herbicides” (FMC CORPORATION, priority 2020, dated 2026).

Key:
Assay type in all cases: in vivo
[1] = test system: soybean (Glycine max); experiment: Test A postemergence, soybean; conditions: 10 days
Procedure, shortened: (§1)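 Crop and weed plants grown in loam–sand mix were treated with compound in non-phytotoxic solvent plus surfactant, either as a preemergence soil spray after sowing or postemergence at one to two leaves. Injury ratings, 0 to 100 relative to untreated controls, were taken after 10 days.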

[2] = test system: goosegrass (Eleusine indica); experiment: Test A postemergence, goosegrass; conditions: 10 days
Procedure, shortened: as §1

[3] = test system: wheat (Triticum aestivum); experiment: Test A preemergence, wheat; conditions: 125 g ai/ha, 0 to 100 scale, 10 days
[4] = test system: soybean (Glycine max); experiment: Test A preemergence, soybean; conditions: 0 to 100 scale, 10 days
Procedure, shortened: as §1

[5] = test system: palmer amaranth (pigweed, palmer, Amaranthus palmeri); experiment: Test A postemergence, palmer amaranth; conditions: 10 days
Procedure, shortened: as §1

[6] = test system: galium (catchweed bedstraw, Galium aparine); experiment: Test A postemergence, galium; conditions: Galium, post-emergence, 240 h, 10 days, read-out: Plant response rating, Galium; for pest or weed control at 31 g/ha: 31 g ai/ha, postemergence, 0 to 100 scale (0 no effect, 100 complete control); for pest or weed control at 125 g/ha: Postemergence, 125 g ai/ha, 0 to 100 scale
Procedure, shortened: as §1

[7] = test system: horseweed (Erigeron canadensis); experiment: Test A postemergence, horseweed; conditions: 10 days
Procedure, shortened: as §1

[8] = test system: corn (Zea mays); experiment: Test A preemergence, corn; conditions: 0 to 100 scale, 10 days
Procedure, shortened: as §1

[9] = test system: oat, wild (wild oat, Avena fatua); experiment: Test A postemergence, oat, wild; conditions: 10 days
Procedure, shortened: as §1

[10] = test system: blackgrass (Alopecurus myosuroides); experiment: Test A preemergence, blackgrass; conditions: 0 to 100 scale, 10 days
Procedure, shortened: as §1

[11] = test system: oat, wild (wild oat, Avena fatua); experiment: Test A preemergence, oat, wild; conditions: 0 to 100 scale, 10 days
Procedure, shortened: as §1

[12] = test system: goosegrass (Eleusine indica); experiment: Test A preemergence, goosegrass; conditions: 0 to 100 scale, 10 days
Procedure, shortened: as §1

[13] = test system: palmer amaranth (pigweed, palmer, Amaranthus palmeri); experiment: Test A preemergence, palmer amaranth; conditions: 0 to 100 scale, 10 days
Procedure, shortened: as §1

[14] = test system: corn (Zea mays); experiment: Test A postemergence, corn; conditions: Zea mays, post-emergence, 240 h, 10 days; for Corn plant response rating (crop injury, 0 = no effect, 100 = complete kill) at 31 g/ha: 31 g ai/ha; for Corn plant response rating (crop injury, 0 = no effect, 100 = complete kill) at 125 g/ha: 125 g ai/ha
Procedure, shortened: as §1

[15] = test system: barnyardgrass (Echinochloa crus-galli); experiment: Test B flooded paddy test, barnyardgrass; conditions: Echinochloa crus-galli; 250 g ai/ha, Flood; visually evaluated after 10 to 14 days; read-out: Plant response rating, Barnyardgrass (0 to 100 scale where 0 is no effect and 100 is complete control)
Procedure, shortened: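 Application into floodwater (3 cm over soil) at the 2-leaf stage, with the depth held constant, followed by greenhouse growth for 10–14 days. Percent control was estimated visually versus controls, where 100 is complete control.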

[16] = test system: barnyardgrass (Echinochloa crus-galli); experiment: Test A preemergence, barnyardgrass; conditions: 10 days
Procedure, shortened: as §1

[17] = 31 g ai/ha, postemergence, 0 to 100 scale (0 no effect, 100 complete control)
[18] = Postemergence, 125 g ai/ha, 0 to 100 scale
[19] = 125 g ai/ha, 0 to 100 scale (0 no effect, 100 complete control)

SMILES	Plant response rating, Soybean [1, 17]	Plant response rating, Soybean [1, 18]	Plant response rating, Goosegrass [2, 17]	Plant response rating, Goosegrass [2, 18]	Plant response rating, Wheat [3]	Plant response rating, Soybean ([4]; 31 g ai/ha)	Plant response rating, Soybean ([4]; 125 g ai/ha)	Plant response rating, Pigweed, Palmer [5, 17]	Plant response rating, Pigweed, Palmer [5, 18]	pest or weed control at 31 g/ha [6] [%]	pest or weed control at 125 g/ha [6] [%]	Plant response rating, Horseweed [7, 17]	Plant response rating, Horseweed [7, 18]	Plant response rating, Corn ([8]; 31 g ai/ha)	Plant response rating, Corn ([8]; 125 g ai/ha)	Corn plant response rating (crop injury, 0 = no effect, 100 = complete kill) at 31 g/ha ([14]; Postemergence, 0 to 100 scale) [%]	Corn plant response rating (crop injury, 0 = no effect, 100 = complete kill) at 125 g/ha ([14]; Postemergence, 0 to 100 scale) [%]	pest or weed control at 250 g/ha [15] [%]	Plant response rating, Barnyardgrass ([16]; 31 g ai/ha, 0 to 100 scale)	Plant response rating, Barnyardgrass [16, 19]	further results
COC(=O)OCOc1c(Cl)nn(C)c(=O)c1-c1c2cc(C)ccc2cc2ccc(C)cc12 [Compound 8, [[3-chloro-5-(2,7-dimethyl-9-anthracenyl)-1,6-dihydro-1-methyl-6-oxo-4-pyridazinyl]oxy]methyl methyl carbonate]	40	60	0	0	0	0	0	70	100	100	100	100	100	0	60	0	20	90			Plant response rating, Oat, Wild [9, 17]: 0; Plant response rating, Oat, Wild [9, 18]: 10; Plant response rating, Blackgrass ([10]; 31 g ai/ha): 0; Plant response rating, Blackgrass ([10]; 125 g ai/ha): 0; Plant response rating, Oat, Wild ([11]; 31 g ai/ha): 0; Plant response rating, Oat, Wild ([11]; 125 g ai/ha): 0; Plant response rating, Goosegrass ([12]; 31 g ai/ha): 0; Plant response rating, Goosegrass ([12]; 125 g ai/ha): 0; Plant response rating, Pigweed, Palmer ([13]; 31 g ai/ha): 100; Plant response rating, Pigweed, Palmer ([13]; 125 g ai/ha): 100
Cc1ccc2cc3ccc(C)cc3c(-c3c(OCOC(=O)C(C)(C)C)c(Cl)nn(C)c3=O)c2c1 [Compound 9, [[3-chloro-5-(2,7-dimethyl-9-anthracenyl)-1,6-dihydro-1-methyl-6-oxo-4-pyridazinyl]oxy]methyl 2,2-dimethylpropanoate]	40	60	30	30	0	0	0	80	80	70	100	100	100	0	0	0	20	98			Plant response rating, Oat, Wild [9, 17]: 0; Plant response rating, Oat, Wild [9, 18]: 0; Plant response rating, Blackgrass ([10]; 31 g ai/ha): 0; Plant response rating, Blackgrass ([10]; 125 g ai/ha): 0; Plant response rating, Oat, Wild ([11]; 31 g ai/ha): 0; Plant response rating, Oat, Wild ([11]; 125 g ai/ha): 0; Plant response rating, Goosegrass ([12]; 31 g ai/ha): 10; Plant response rating, Goosegrass ([12]; 125 g ai/ha): 10; Plant response rating, Pigweed, Palmer ([13]; 31 g ai/ha): 40; Plant response rating, Pigweed, Palmer ([13]; 125 g ai/ha): 100
CC(=O)OCOc1c(Cl)nn(C)c(=O)c1-c1c2ccccc2cc2ccccc12 [Compound 10, 5-[(acetyloxy)methoxy]-4-(9-anthracenyl)-6-chloro-2-methyl-3(2H)-pyridazinone]										90	100					10	20	15	0	0	
CC(=O)OCOc1c(Cl)nn(C)c(=O)c1-c1c2ccccc2c(Cl)c2ccccc12 [Compound 11, 5-[(acetyloxy)methoxy]-6-chloro-4-(10-chloro-9-anthracenyl)-2-methyl-3(2H)-pyridazinone]										100	100					0	10	15	20	30	
CC(=O)OCOc1c(C)nn(C)c(=O)c1-c1c2cc(C)ccc2cc2ccc(F)cc12 [Compound 24, 5-[(acetyloxy)methoxy]-4-(2-fluoro-7-methyl-9-anthracenyl)-2,6-dimethyl-3(2H)-pyridazinone]										100	100						20	70	60	90	Corn plant response rating (crop injury, 0 = no effect, 100 = complete kill) at 31 g/ha ([14]; postemergence, 0 to 100 scale (0 no effect, 100 complete control)): 10%
